Measured values published in patent US9708602B2, “Screening for inhibitors of ribosome biogenesis” (priority 2013, dated 2017).

Columns and labels:
MCrg* cells = experiment: Probing MCrg* with ribosome-targeting antibiotics: whole-cell growth and mAzami/mCherry fluorescence ratio; assay type: cell-based, E. coli
Experimental: (§1) Whole-cell analyses (A-B): MCrg* cells were cultured in at 25° C. in M9 medium for 7 hours in the absence and presence of antibiotics, as indicated. Samples were taken every hour. (A) OD600 values were determined and (B) mAzami and mCherry fluorescence emission were detected and ratios were calculated. Fluorescence ratios of MCrg* were normalized to 1. Exemplary growth curves are given and fluorescence ratios are means from three independent experiments; error bars show s.d. Analyses of isolated ribosomal particles (C-H and J-M): Sucrose density gradient (10-25%) centrifugation profiles from (C) control cells with no antibiotic (none), (D) chloramphenicol (Cam), (E) erythromycin (Ery), (F) kanamycin (Kan) and (G) neomycin (Neo) treated cells. Sucrose gradient fractions from (C) to (G) were analyzed for fluorescence by a micro plate reader. A254 profiles and fluorescence bar charts were superimposed for (H) control cells with no antibiotic (none), (J) chloramphenicol (Cam), (K) erythromycin (Ery), (L) kanamycin (kan) and (M) neomycin (Neo) treated cells. Cells in presence and absence of antibiotics were cultured in LB medium at 25° C. for 3 hours before subsequent polysome analysis. Left shifted peaks of the large subunit are indicated by horizontal arrows, abnormal portions of the small subunit by vertical arrows; Bars with black lines: normalized mCherry fluorescence; Black bars: normalized mAzami fluorescence. Fluorescence was normalized to the first polysome peak (“disome”) where subunits are present in 1:1 ratio.
(§2) Using MCrg*, it was investigated, whether treatment of cells with ribosome targeting antibiotics results in assembly defects of both ribosomal subunits. The antibiotics tested were chloramphenicol, erythromycin and neomycin, which are known to cause assembly defects of both ribosomal subunits, and kanamycin, which was so far not investigated for its potential to cause ribosome assembly defects. MCrg* cells were cultured in M9 medium for seven hours in the absence or presence of chloramphenicol (7 μg/ml), erythromycin (100 μg/ml), kanamycin (7 μg/ml) or neomycin (7 μg/ml). […] Treatment with chloramphenicol, by contrast, led to an increased fluorescence ratio, with a maximum of 1.20 after 7 hours. […] This hypothesis was tested by analyzing ribosome profiles obtained from MCrg* cells that grew in the presence of the antibiotics or without (FIG. 15C-G). […] The 70S peak and the polysomes (not shown) are reduced in intensity since no chloramphenicol was added prior to harvesting to prevent 70S run off.

[1] = system: ribosomal subunits of MCrg* cells; experiment: Sucrose density gradient ribosome profiles (A254 and fluorescence of fractions) of antibiotic treated MCrg* cells; assay type: cell-based, E. coli; conditions: for 30S peak region in A254 ribosome profile / 50S peak in A254 ribosome profile: cells cultured with antibiotic in LB medium at 25° C. for 3 hours, 10-25% sucrose gradient; for green (mAzami, large subunit) fluorescence in overlay of A254 and fluorescence profiles: sucrose gradient fractions, micro plate reader
Experimental: as §1, §2
When focusing on the overlay diagrams (combining A254 and fluorescence read outs) (FIG. 15H, J-M), ribosome profiles from non treated cells are basically congruent (FIG. 15H). […] These peaks of green fluorescence presumably represent defective assembly intermediates of the large subunit that are caused by all the antibiotics used in this study, but to different extend. […] To analyze eventual defects of the small subunit in more detail, the red fluorescence profiles were aligned and the one derived from non treated cells was compared with all the others obtained from antibiotic treated cells. […] A more thorough analysis including quantitation of the 16S and 23S rRNA within the sucrose fractions confirmed the presence of assembly intermediates.
E. coli cells were inoculated from stationary cultures and incubated until mid-logarithmic phase (OD600=0.6-0.8). In order to record polysome profiles, cells were sedimented, resuspended and lysed. After centrifugation, lysates of 10 A260 units were loaded onto 5-45% sucrose gradients for polysome profiles or 10-40% gradients for subunit separation. Ultracentrifugation was performed at 41.000 rpm (3 h; polysome profiles) or 23.000 rpm (16 h, subunit separation). Ribosomal components in the gradients were analyzed by recording the A254 values and collecting 200 μl and 50 μl fractions, respectively, that were later examined in 96-well plates on fluorescence by using a plate reader.

[2] = system: E. coli MC4100 and MC-RG1 cells; experiment: Detection of ribosome assembly defects: growth (A650) and EGFP/mCherry fluorescence time course in 96-well plates; assay type: cell-based; conditions: 30° C., 96-well plate
From the text: Monitoring biogenesis and assembly of ribosomal subunits also allows the detection of abnormalities in ribosome biogenesis and assembly processes. […] Chloramphenicol primarily binds to the large subunit and thereby inhibits the peptidyl transfer reaction. Alongside a resulting shut-down of protein synthesis, accumulating precursor particles of both ribosomal subunits have been observed. Therefore, treatment of cells with chloramphenicol causes precursor accumulation and assembly defects of ribosomal subunits. E. coli MC4100 and MC-RG1 cells were transferred to 96-well plates and incubated at 30° C. in a plate reader. After one hour, wild-type and reporter cells were treated with increasing amounts of chloramphenicol and incubation was continued for another six more hours. A650 values, EGFP and mCherry specific fluorescence intensities were automatically detected. In the absence of chloramphenicol, the growth curve of the reporter strain reached a maximum A650 of 0.5. […] In vivo fluorescence recordings of the E. coli MC4100rp/S-egfp,rpsB-mcherry-ΔygdP cells growing in 96-well plates were performed and fluorescent signals measured. EGFP/mCherry fluorescence intensity ratios differed clearly when comparing MC4100rp/S-egfp,rpsB-mcherry (RN55b) with MC4100rplS-egfp,rpsB-mcherry-ΔygdP reporter strains. […] The overall decreased EGFP/mCherry fluorescence ratio values of the knock-out strain compared to the RN55b reporter strain are caused by proportional lower EGFP fluorescence intensities. In summary, fluorescence recordings of reporter strains are suitable to detect changes in the level of ribosomal subunits, e.g. due to biogenesis defects.
Cells grown to stationary phase were diluted to an OD600 of 0.05 and transferred into 96-well plates, such that each well contained an initial volume of 100 μl. […] Cells were further incubated in the plate reader for several hours and fluorescence as well as A650 data were collected every 10 minutes. Mean values were calculated and MC4100 fluorescence background values were subtracted from the reporter strain values.

Compound | cell growth (OD600) (MCrg* cells; M9 medium, seven hours, 25° C., chloramphenicol 7 μg/ml, erythromycin 100 μg/ml, kanamycin 7 μg/ml, neomycin 7 μg/ml) | normalized fluorescence ratio (mAzami/mCherry), maximum (MCrg* cells; chloramphenicol 7 μg/ml, after 7 hours, untreated MCrg* normalized to 1) | 30S peak region in A254 ribosome profile [1] | 50S peak in A254 ribosome profile [1] | green (mAzami, large subunit) fluorescence in overlay of A254 and fluorescence profiles [1] | concentration above which cells did not grow any further ([2]; added after one hour, six more hours incubation) | cell growth (A650) ([2]; increasing amounts added after one hour, six more hours incubation) | EGFP and mCherry fluorescence ([2]; increasing concentrations) | normalized fluorescence ratio (mAzami/mCherry) (MCrg* cells; erythromycin 100 μg/ml, after 5 hours, untreated MCrg* normalized to 1) | change in the fluorescence ratio (mAzami/mCherry) (MCrg* cells; 7 μg/ml, seven hours time course)
O=C(N[C@H](CO)[C@H](O)c1ccc([N+](=O)[O-])cc1)C(Cl)Cl [chloramphenicol] | strongest growth defects | 1.20 | additional peak (left-lateral of 30S) | reduced and left shifted 50S peaks | portion of green fluorescence within the region of the 30S peak | higher than 15.5 μM | dosedependent reduction of cell growth | decreased with increasing concentrations | – | –
CC[C@H]1OC(=O)[C@H](C)[C@@H](O[C@H]2C[C@@](C)(OC)[C@@H](O)[C@H](C)O2)[C@H](C)[C@@H](O[C@@H]2O[C@H](C)C[C@H](N(C)C)[C@H]2O)[C@](C)(O)C[C@@H](C)C(=O)[C@H](C)[C@@H](O)[C@]1(C)O [erythromycin] | – | – | 30S peak had a shoulder on the left | reduced and left shifted 50S peaks | portion of green fluorescence within the region of the 30S peak | – | – | – | 0.95 | –
neomycin | – | – | additional peak on the left of the 30S peak | slight reduction and left shift of the 50S peak | green fluorescent peaks of weaker intensity but at similar positions within the profile | – | – | – | – | did not show a significant change in the fluorescence ratio
